pIC50: −log10 of the molar value. Structures can show the parent of a compound that is named as a salt.
Tests used:
TLR8 = biological target: T1, TLR8 (Homo sapiens, UniProt Q9NR97); test: HEK TLR8 Cell Assay; assay type: cell-based; settings: TLR8/NFKb HEK cells, R848 agonist 30 uM final, Steady-Glo readout
T1 construct: expressed in transfected cells; host or cells: HEK cells carrying TLR8 and an NFkB luciferase reporter
T1 sequence (Q9NR97 27-1041): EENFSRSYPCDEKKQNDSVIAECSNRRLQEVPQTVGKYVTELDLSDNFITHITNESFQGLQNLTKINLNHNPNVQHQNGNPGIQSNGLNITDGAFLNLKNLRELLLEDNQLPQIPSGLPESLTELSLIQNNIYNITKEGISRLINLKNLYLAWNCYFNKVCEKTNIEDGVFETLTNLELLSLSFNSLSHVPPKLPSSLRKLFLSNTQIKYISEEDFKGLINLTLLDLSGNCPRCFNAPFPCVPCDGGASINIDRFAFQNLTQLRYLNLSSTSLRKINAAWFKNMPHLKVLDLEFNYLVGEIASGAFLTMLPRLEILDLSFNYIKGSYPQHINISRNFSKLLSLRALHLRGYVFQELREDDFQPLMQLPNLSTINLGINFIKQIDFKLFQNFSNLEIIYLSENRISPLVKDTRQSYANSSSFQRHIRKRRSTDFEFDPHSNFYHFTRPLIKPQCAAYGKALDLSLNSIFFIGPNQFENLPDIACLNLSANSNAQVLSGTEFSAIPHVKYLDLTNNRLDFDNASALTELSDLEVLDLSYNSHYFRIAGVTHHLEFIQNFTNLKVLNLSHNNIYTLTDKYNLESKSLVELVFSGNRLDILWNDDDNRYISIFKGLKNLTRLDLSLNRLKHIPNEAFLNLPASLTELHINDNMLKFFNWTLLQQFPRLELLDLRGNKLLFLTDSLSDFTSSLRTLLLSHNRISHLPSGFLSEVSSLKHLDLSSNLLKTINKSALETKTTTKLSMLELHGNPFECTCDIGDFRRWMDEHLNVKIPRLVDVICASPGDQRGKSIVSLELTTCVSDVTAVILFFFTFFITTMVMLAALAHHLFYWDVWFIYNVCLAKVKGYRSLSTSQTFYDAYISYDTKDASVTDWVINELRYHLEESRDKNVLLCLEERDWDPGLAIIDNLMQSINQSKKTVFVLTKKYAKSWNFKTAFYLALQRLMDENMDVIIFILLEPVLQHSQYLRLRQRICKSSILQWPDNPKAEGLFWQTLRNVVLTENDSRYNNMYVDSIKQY
Experimental: Example 25: HEK TLR8 Cell Assay
(§1) Into 384 CulturePlates (Corning 3707) was placed 5000 c/w of TLR8/NFKb HEK cells in 30 uL DMEM without Phenol red (gibco #31053) and 10% FCS-HI, 2 mM L-Glutamine, 1% Pen/Strept. The cells are incubated for 24 h at 37 degrees Celsius, and 10% carbon dioxide. Dispense 3 uL of controls, standards, and compounds to wells, incubate for 30 min then add 3 uL of R848 (30 uM final concentration) agonist in 20 mM Hepes. Incubate for 5 hours and then allow to stand at room temperature for 15 min. Add 10 uL of Steady-Glo substrate reagent and shake assay plate for 5 min at 1500 rpm. Let the assay plate sit for 30 min at room temperature and then read plate on EnVision.

TLR7 = biological target: T2, TLR7 (Homo sapiens, UniProt Q9NYK1); test: HEK TLR7 Cell Assay; assay type: cell-based; settings: TLR7/NFKb HEK cells, R848 agonist 10 uM final, Steady-Glo readout
T2 construct: expressed in transfected cells; host or cells: HEK cells carrying TLR7 and an NFkB luciferase reporter
T2 sequence (Q9NYK1 27-1049): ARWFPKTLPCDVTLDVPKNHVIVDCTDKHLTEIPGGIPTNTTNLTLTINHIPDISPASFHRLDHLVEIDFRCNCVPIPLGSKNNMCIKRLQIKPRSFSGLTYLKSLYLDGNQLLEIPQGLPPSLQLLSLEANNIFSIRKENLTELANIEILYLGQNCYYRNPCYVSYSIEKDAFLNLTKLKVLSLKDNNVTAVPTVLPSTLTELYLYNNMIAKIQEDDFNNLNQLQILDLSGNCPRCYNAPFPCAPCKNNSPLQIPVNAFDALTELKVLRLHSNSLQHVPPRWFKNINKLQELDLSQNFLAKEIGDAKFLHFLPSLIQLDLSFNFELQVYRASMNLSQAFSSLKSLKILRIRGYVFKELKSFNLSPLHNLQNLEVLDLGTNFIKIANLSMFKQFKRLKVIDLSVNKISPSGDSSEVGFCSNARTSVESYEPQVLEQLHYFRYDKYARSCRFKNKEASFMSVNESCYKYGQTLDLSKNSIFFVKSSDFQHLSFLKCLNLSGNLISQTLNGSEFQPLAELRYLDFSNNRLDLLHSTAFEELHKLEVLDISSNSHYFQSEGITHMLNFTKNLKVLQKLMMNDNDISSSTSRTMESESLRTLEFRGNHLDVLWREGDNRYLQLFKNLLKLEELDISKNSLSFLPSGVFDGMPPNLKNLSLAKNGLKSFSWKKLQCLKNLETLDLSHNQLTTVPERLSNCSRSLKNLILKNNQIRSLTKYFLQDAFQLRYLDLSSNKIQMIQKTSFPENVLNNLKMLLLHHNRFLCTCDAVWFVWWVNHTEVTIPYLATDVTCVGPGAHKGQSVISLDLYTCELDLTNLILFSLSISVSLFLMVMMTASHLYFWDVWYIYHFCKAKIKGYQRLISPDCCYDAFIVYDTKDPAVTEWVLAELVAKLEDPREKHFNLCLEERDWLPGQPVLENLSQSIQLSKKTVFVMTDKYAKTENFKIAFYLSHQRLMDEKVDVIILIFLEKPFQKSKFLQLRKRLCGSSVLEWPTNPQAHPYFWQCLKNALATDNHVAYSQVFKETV
Experimental: Example 24: HEK TLR7 Cell Assay
as §1, with “TLR7/NFKb” for “TLR8/NFKb”, “(10” for “(30”

Structure (SMILES)	pIC50 (TLR8)	pIC50 (TLR7)
C[C@@H]1CN(c2ccc(C(F)(F)F)c3ncccc23)C[C@@H]1NC(=O)CC1CCCN(C)C1 (single isomer, unassigned) [Compound 20]	5.00 to 6.00	> 6.00
C[C@@H]1CN(c2ccc(C(F)(F)F)c3ncccc23)C[C@@H]1NC(=O)CC1CCN(C)CC1(F)F (single isomer, unassigned) [Compound 28]	5.00 to 6.00	5.00 to 6.00
CCN(CC)CCNC(=O)C1CCN(c2ccnc3nccnc23)C1 (centres unmarked) [Compound 54, 1-pyrido[2,3-b]pyrazin-8-yl-pyrrolidine-3-carboxylic acid (2-diethylamino-ethyl)-amide]	< 5.00	< 5.00
C[C@@H]1CN(c2ccc(C#N)c3nccnc23)C[C@@H]1NC(=O)CC1CCCN(C)C1 (single isomer, unassigned) [Compound 4]	> 6.00	> 6.00
C[C@@H]1CN(c2ccc(C#N)c3nccnc23)C[C@@H]1NC(=O)CC1(C)CCN(C)CC1 [Compound 8, N-[(3R,4R)-1-(8-cyanoquinoxalin-5-yl)-4-methylpyrrolidin-3-yl]-2-(1,4-dimethylpiperidin-4-yl)acetamide]	> 6.00	> 6.00
C[C@@H]1CN(c2ccc(C#N)c3nccnc23)C[C@@H]1NC(=O)CC1CCN(C)CC1(F)F (single isomer, unassigned) [Compound 12]	> 6.00	> 6.00

Next, values leading:

pIC50 (TLR8)	pIC50 (TLR7)	Structure (SMILES)
> 6.00	> 6.00	Cc1ccc(N2C[C@@H](C)[C@@H](NC(=O)CC3CCN(C)CC3)C2)c2cccnc12 [Compound 34, N-[(3R,4R)-4-methyl-1-(8-methylquinolin-5-yl)pyrrolidin-3-yl]-2-(1-methylpiperidin-4-yl)acetamide]
< 5.00	5.00 to 6.00	Cc1ncc(N2C[C@@H](C)[C@@H](N)C2)c2cccnc12 [Compound 51, (3R,4R)-4-methyl-1-(8-methyl-[1,7]naphthyridin-5-yl)-pyrrolidin-3-ylamine hydrochloride]
< 5.00	5.00 to 6.00	CC(C)[C@H](O)C(=O)N[C@H]1CN(c2ccc(C(F)(F)F)c3ncccc23)C[C@H]1C [Compound 31, (2S)-2-hydroxy-3-methyl-N-[(3R,4R)-4-methyl-1-[8-(trifluoromethyl)quinolin-5-yl]pyrrolidin-3-yl]butanamide]
< 5.00	5.00 to 6.00	C[C@@H]1CN(c2ccc(C(F)(F)F)c3ncccc23)C[C@@H]1NC(=O)CN1CCOCC1 [Compound 23, N-[(3R,4R)-4-methyl-1-[8-(trifluoromethyl)quinolin-5-yl]pyrrolidin-3-yl]-2-(morpholin-4-yl)acetamide]

Reference: US10793553B2, “TLR7/8 antagonists and uses thereof” (Merck Patent GmbH, priority 2017, dated 2020)
